From patent US20230303572A1, “18-MC SALT FORMS” (Mind Medicine, Inc., priority 2022, published 2023)
Where a name gives a salt, the structure may show the parent alone. Marks after values point to notes of the source that are not given here.

Experiments:
Assay type in all cases: physicochemical
[1] = Physical form stability on storage at RT, air drying or exposure to ambient conditions (XRPD)
Excerpt: (§1) For XRPD analysis, a PANalytical Empyrean and X′ Pert3 X-ray powder diffract meter was used.

[2] = Heating experiments and VT-XRPD (N2 drying, heating, cooling back): form change; conditions: for form change after N2 drying (VT-XRPD): N2-drying for 20 min at 30° C.; for Form change after treatment: Heat to 165~170° C. under N2, XRPD form; for Form after heating: solid form by XRPD after heating, cells marked *, # have footnotes that are not shown
Excerpt: as §1

[3] = Approximate solubility estimated by stepwise solvent addition (RT and 50° C.)
Experimental: Approximate solubility values of sulfate Type A (824511-04-A) were estimated in 10 solvents to guide the solvent selection in the polymorph screening, with results summarized in TABLE 16B.
Approximate solubility of oxalate Type B (824511-04-C) was estimated in 10 solvents to guide the solvent selection in polymorph screening of oxalate, and the results were summarized in TABLE 19C.
Procedure: weigh ~2 mg solids into each 3-mL glass vial, add in corresponding solvent stepwise and sonicate or oscillate to see if solids dissolved completely. Stop adding solvent till the solids dissolves or total volume reaches 1.0 mL. Calculate the approximate solubility based on solvent volume.
The approximate solubility of mesylate Type A (824511-23-B) was estimated in 10 solvents to guide the solvent selection in polymorph screening of the mesylate, with results summarized in TABLE 22C.
Approximate solubility of HBr salt Type A (824511-29-B) was estimated in 10 solvents to guide the solvent selection in polymorph screening of HBr salt, with data summarized in TABLE 25B.
Approximate solubility of tosylate Type B (824511-23-A-0628) was estimated in 40 solvents to guide the solvent selection in polymorph screening of tosylate, with data summarized in TABLE 27B.
Approximate solubility of besylate Type B (824511-44-C2) was estimated in 38 solvents to guide the solvent selection in polymorph screening of besylate, with results shown in TABLE 31.

[4] = heating to 80° C. and cooling back to RT
[5] = approximate solubility in CHCl3 at RT
[6] = approximate solubility in EtOAc at RT
[7] = approximate solubility in H2O at RT
[8] = approximate solubility in MeOH at RT
[9] = approximate solubility in THF at RT
[10] = approximate solubility in n-Heptane at RT

COCC[C@H]1CC2CN3CCc4c([nH]c5ccccc45)[C@](C(=O)OC)(C2)[C@H]13 [mesylate Type B, 18-methoxycoronaridine]
physical stability at ambient conditions ([1]; ambient conditions, time not stated): not found to be physically stable at ambient conditions and easily converted to gels/oils | Speculated form (physical stability) ([1]; the solid turn to gel-like after air drying at RT in a few minutes): Metastable*

COCC[C@H]1CC2CN3CCc4c([nH]c5ccccc45)[C@](C(=O)OC)(C2)[C@H]13 [tosylate Type G, 18-methoxycoronaridine]
form change after heating (XRPD) [2, 4]: no form change | form change after heating (XRPD) ([2]; heating to 90° C.): crystallinity of the sample decreased significantly | form change after heating (XRPD/VT-XRPD) ([2]; heating to 100° C.): amorphous was obtained

COCC[C@H]1CC2CN3CCc4c([nH]c5ccccc45)[C@](C(=O)OC)(C2)[C@H]13 [besylate Type A, 18-methoxycoronaridine]
form change after heating (XRPD/VT-XRPD) ([2]; heating to 100° C.): a new form was observed and assigned as besylate Type C

COCC[C@H]1CC2CN3CCc4c([nH]c5ccccc45)[C@](C(=O)OC)(C2)[C@H]13 [mesylate Type A, 18-methoxycoronaridine]
Solubility (mg/mL) ([3]; approximate solubility in Acetone at RT): S<2.3 mg/mL | Solubility (mg/mL) [3, 5]: S>42.0* mg/mL | Solubility (mg/mL) [3, 6]: S<2.2 mg/mL | Solubility (mg/mL) [3, 7]: S>42.0* mg/mL | Solubility (mg/mL) [3, 8]: S>40.0 mg/mL | Solubility (mg/mL) [3, 9]: S<2.0 mg/mL | Solubility (mg/mL) [3, 10]: S<2.0 mg/mL | form change after N2 drying (VT-XRPD) [2]: no form change | form change after heating (XRPD/VT-XRPD) ([2]; heating to 100° C.): no obvious form change

COCC[C@H]1CC2CN3CCc4c([nH]c5ccccc45)[C@](C(=O)OC)(C2)[C@H]13 [tosylate Type B, 18-methoxycoronaridine]
Approximate solubility ([3]; 50° C., 1,4-Dioxane/n-heptane (1:2) v:v): S<1.9 mg/mL | Approximate solubility ([3]; 50° C., IPAc): S<2.2 mg/mL | Approximate solubility ([3]; 50° C., MTBE): S<2.1 mg/mL | Approximate solubility ([3]; 50° C., Toluene): S<1.9 mg/mL | Approximate solubility ([3]; 50° C., n-Heptane): S<2.0 mg/mL | Approximate solubility ([3]; RT, 2-MeTHF): S<2.1 mg/mL | Approximate solubility ([3]; RT, ACN/toluene (4:1) v:v): S>42.0 mg/mL | Approximate solubility ([3]; RT, Acetone/n-heptane (4:1) v:v): S<2.0 mg/mL | Approximate solubility ([3]; RT, CHCl3): S>40.0 mg/mL | Approximate solubility ([3]; RT, CHCl3/toluene (1:4) v:v): S<1.9 mg/mL | Approximate solubility ([3]; RT, EtOAc, little solid in the vial): S<2.1^& mg/mL | Approximate solubility ([3]; RT, EtOH): S>40.0 mg/mL | Approximate solubility ([3]; RT, EtOH/n-hexane (3:1) v:v): S>42.0 mg/mL | Approximate solubility ([3]; RT, H2O): S<2.0 mg/mL | Approximate solubility ([3]; RT, MeOH): S>44.0 mg/mL | Approximate solubility ([3]; RT, THF/H2O (87:13) v:v): S>42.0 mg/mL | Approximate solubility ([3]; RT, n-Heptane): S<2.0 mg/mL

COCC[C@H]1CC2CN3CCc4c([nH]c5ccccc45)[C@](C(=O)OC)(C2)[C@H]13 [HCl salt Type A+L, 18-methoxycoronaridine]
form change after storage (XRPD) ([1]; storage at RT for ~22 days): converted to HCl salt Type A completely

COCC[C@H]1CC2CN3CCc4c([nH]c5ccccc45)[C@](C(=O)OC)(C2)[C@H]13 [tosylate Type E, 18-methoxycoronaridine]
form change after heating (XRPD) [2, 4]: no form change | form change after heating (XRPD) ([2]; heating to 101° C. and cooling back to RT): a sample with weak crystallinity and similar to tosylate Type B was obtained

COCC[C@H]1CC2CN3CCc4c([nH]c5ccccc45)[C@](C(=O)OC)(C2)[C@H]13 [HBr salt Type A, 18-methoxycoronaridine]
Solubility (mg/mL) ([3]; approximate solubility in ACN at RT): S<2.1 * mg/mL | Solubility (mg/mL) [3, 5]: S<2.1 * mg/mL | Solubility (mg/mL) ([3]; approximate solubility in DCM at RT): S<2.1 * mg/mL | Solubility (mg/mL) [3, 6]: S<2.1 mg/mL | Solubility (mg/mL) [3, 7]: S<2.1 mg/mL | Solubility (mg/mL) [3, 8]: S>42.0 mg/mL | Solubility (mg/mL) [3, 9]: S<2.0 mg/mL | Solubility (mg/mL) [3, 10]: S<2.0 mg/mL | form change after drying or heating (VT-XRPD) ([2]; drying or heating under N2 to higher temperatures and cooling back to RT): no form change

COCC[C@H]1CC2CN3CCc4c([nH]c5ccccc45)[C@](C(=O)OC)(C2)[C@H]13 [sulfate Type D, 18-methoxycoronaridine]
form change after N2 drying (VT-XRPD) [2]: a new form was observed and assigned as sulfate Type F

COCC[C@H]1CC2CN3CCc4c([nH]c5ccccc45)[C@](C(=O)OC)(C2)[C@H]13 [HCl salt Type F, 18-methoxycoronaridine]
Form change after treatment [2]: HCl salt Type K* | Form after heating [2]: HCl salt Type K^#

COCCC1CC2CN3CCc4c([nH]c5ccccc45)C(C(=O)OC)(C2)C13.O=S(=O)(O)c1ccccc1 (stereo not drawn) [besylate Type B (824511-44-C2)]
Approximate solubility ([3]; 50° C., solvent 2-MeTHF, *: little solids in the vial): S<1.9* mg/mL | Approximate solubility ([3]; 50° C., solvent Toluene): S<1.9 mg/mL | Approximate solubility ([3]; 50° C., solvent n-Heptane): S<2.0 mg/mL | Approximate solubility ([3]; RT, solvent 2-MeTHF): S<1.9 mg/mL | Approximate solubility ([3]; RT, solvent ACN): S>40.0 mg/mL | Approximate solubility ([3]; RT, solvent ACN/H2O (1:2, aw 0.9), *: little solids in the vial): S<1.9* mg/mL | Approximate solubility ([3]; RT, solvent CHCl3): S>40.0 mg/mL | Approximate solubility ([3]; RT, solvent DCM): S>40.0 mg/mL | Approximate solubility ([3]; RT, solvent EtOAc): S<2.0 mg/mL | Approximate solubility ([3]; RT, solvent H2O): S<2.0 mg/mL | Approximate solubility ([3]; RT, solvent IPA/H2O (847:153, aw 0.8)): S>40.0 mg/mL | Approximate solubility ([3]; RT, solvent MeOH): S>44.0 mg/mL | Approximate solubility ([3]; RT, solvent THF/H2O (87:13, aW 0.8)): S>42.0 mg/mL | Approximate solubility ([3]; RT, solvent THF/H2O (981:19, aw 0.2)): S>40.0 mg/mL | Approximate solubility ([3]; RT, solvent n-Heptane): S<2.0 mg/mL

COCC[C@H]1CC2CN3CCc4c([nH]c5ccccc45)[C@](C(=O)OC)(C2)[C@H]13 [HCl salt Type H, 18-methoxycoronaridine]
Form change after treatment [2]: Freebase Type A+extra peak* | Form after heating [2]: Freebase Type A+extra peak

COCC[C@H]1CC2CN3CCc4c([nH]c5ccccc45)[C@](C(=O)OC)(C2)[C@H]13 [oxalate Type B, 18-methoxycoronaridine]
Solubility (mg/mL) [3, 6]: S<1.8 mg/mL | Solubility (mg/mL) [3, 7]: S>38.0 mg/mL | Solubility (mg/mL) [3, 8]: S>44.0 mg/mL | Solubility (mg/mL) [3, 10]: S<2.1 mg/mL

COCC[C@H]1CC2CN3CCc4c([nH]c5ccccc45)[C@](C(=O)OC)(C2)[C@H]13 [sulfate Type E, 18-methoxycoronaridine]
form change after heating (XRPD/VT-XRPD) ([2]; heating to 100° C.): no form change

COCC[C@H]1CC2CN3CCc4c([nH]c5ccccc45)[C@](C(=O)OC)(C2)[C@H]13 [tosylate Type F, 18-methoxycoronaridine]
form change after heating (XRPD) ([2]; heating to 90° C.): form change to tosylate Type B

COCC[C@H]1CC2CN3CCc4c([nH]c5ccccc45)[C@](C(=O)OC)(C2)[C@H]13 [sulfate Type A, 18-methoxycoronaridine]
Solubility (mg/mL) ([3]; CHCl3, RT, approximate): S<1.9 mg/mL | Solubility (mg/mL) ([3]; DCM, RT, approximate): S<2.1 mg/mL | Solubility (mg/mL) ([3]; EtOAc, RT, approximate): S<2.0 mg/mL | Solubility (mg/mL) ([3]; MeOH, RT, approximate): S>44.0 mg/mL | Solubility (mg/mL) ([3]; THF, RT, approximate): S<1.9 mg/mL | Solubility (mg/mL) ([3]; Toluene, RT, approximate): S<2.2 mg/mL | Solubility (mg/mL) ([3]; n-Heptane, RT, approximate): S<1.8 mg/mL | form change after N2 drying (VT-XRPD) [2]: no obvious form change | form change after heating (XRPD/VT-XRPD) ([2]; heating to 120° C.): no obvious form change

COCC[C@H]1CC2CN3CCc4c([nH]c5ccccc45)[C@](C(=O)OC)(C2)[C@H]13 [besylate Type B, 18-methoxycoronaridine]
form change after N2 drying (VT-XRPD) [2]: no obvious form change | form change after heating (XRPD/VT-XRPD) ([2]; heating to 100° C.): no obvious form change
